Counter-ions that a name gives are not always drawn.

Assay [1] has as its system L6-myotubes. In words: Glucose uptake (3H-2-deoxyglucose) in differentiated L6-myotubes, compared to isoproterenol. It is filed as cell-based. Particulars: compound at 10 μM vs isoproterenol at 10 μM, read-out: Biological example 1: glucose uptake activity compared to that of isoproterenol. The procedure:
(§1) L6-myoblasts were grown in Dulbecco's Modified Eagle's Medium (DMEM) containing 1 g/L glucose supplemented with 10% fetal bovine serum, 2 mM L-Glutamine, 50 U/mL penicillin, […] streptomycin and 10 mM HEPES. Cells were plated at 1×10^5 cells per mL in 24-well plates. After reaching 90% confluence the cells were grown in medium containing 2% FBS for 7 days where upon cells differentiated into myotubes.
Differentiated L6-myotubes were serum-starved overnight in medium containing 0.5% fatty-acid free BSA and stimulated with an agonist, with a final concentration of 1×10^−5 M. After 1 h 40 min the cells were washed with warm glucose free medium or PBS twice and another portion of agonist was added to the glucose free medium. After 20 min the cells were exposed to 50 nM ^3H-2-deoxyglucose for another 10 min before washed in ice cold glucose free medium or PBS three times and lysed in 400 μL/well 0.2 M NaOH for 1 h at 60° C. The cell lysate was mixed with 4 mL scintillation buffer (Emulsifier Safe, Perkin Elmer) and the radioactivity was detected in a p-counter (Tri-Carb 4810TR, Perkin Elmer). The activity for each compound is compared to that of isoproterenol.

Assay [2] deals with L6-myotubes. Put plainly: Measurement of intracellular cAMP levels (alpha screen cAMP kit) in differentiated cells, compared to isoproterenol. It is filed as cell-based. Particulars: 0.25 h, compound at 10 μM vs isoproterenol at 10 μM, 15 min stimulation, read-out: Biological example 2: intracellular cAMP level activity compared to that of isoproterenol. On the procedure: as §1
Differentiated cells were serum-starved overnight and stimulated with an agonist, final concentration 1×10^−5 M, for 15 min in stimulation buffer (HBSS supplemented with 1% BSA, 5 mM HEPES and 1 mM IBMX, pH 7.4). The medium was aspirated and 100 μL of 95% EtOH was added to each well of the 24-well plate and cells were kept at −20° C. overnight. The EtOH was allowed to evaporate and 500 μL of lysis buffer (1% BSA, 5 mM HEPES and 0.3% Tween-20, pH 7.4) was added to each well. The plate was kept at −80° C. for 30 min and then at −20° C. until the day of detection when the samples were thawed. Intracellular cAMP levels were detected using an alpha screen cAMP kit (6760635D from Perkin Elmer). The activity for each compound is compared to that of isoproterenol.
Background: Cyclic AMP is a second messenger, typically raised through Gs and lowered through Gi signalling.

Consider `CC(C)(C[C@@H]1CCCNC1)NC[C@H](O)c1cccc(C(F)(F)F)n1` [Example 21, (S)-2-((2-Methyl-1-((S)-piperidin-3-yl)propan-2-yl)amino)-1-(6-(trifluoromethyl)pyridin-2-yl)ethan-1-ol], for which the Emax at 10 µM in assay [1] is 50 to 75%; in assay [2], under 25%.

For `CC(=O)N1CCC[C@@H](CC(C)(C)NC[C@H](O)c2cccc(C(F)(F)F)n2)C1` [Example 22, 1-((S)-3-(2-(((S)-2-Hydroxy-2-(6-(trifluoromethyl)pyridin-2-yl)ethyl)-amino)-2-methylpropyl)piperidin-1-yl)ethan-1-one dihydrochloride], the Emax at 10 µM in assay [1] is over 75%; in assay [2], under 25%.

For `CC(C)(C[C@@H]1CCCN(S(C)(=O)=O)C1)NC[C@H](O)c1cccc(C(F)(F)F)n1` [Example 23, (S)-2-((2-Methyl-1-((S)-1-(methylsulfonyl)piperidin-3-yl)propan-2-yl)-amino)-1-(6-(trifluoromethyl)pyridin-2-yl)ethan-1-ol dihydrochloride], the Emax at 10 µM was 50 to 75% in assay [1] and under 25% in assay [2].

On to `CC(C)(C[C@H]1CCCN(S(C)(=O)=O)C1)NC[C@H](O)c1cccc(F)c1` [Example 25, (R)-1-(3-Fluorophenyl)-2-((2-methyl-1-((R)-1-(methylsulfonyl)-piperidin-3-yl)propan-2-yl)amino)ethan-1-ol hydrochloride], for which the figures for the Emax at 10 µM in assay [1] and in assay [2] were 25 to 50% and under 25%, respectively.

`CC(=O)N1CCC[C@H](CC(C)(C)NC[C@H](O)c2cncc(F)c2)C1` [Example 26, 1-((R)-3-(2-(((R)-2-(5-Fluoropyridin-3-yl)-2-hydroxyethyl)amino)-2-methylpropyl)piperidin-1-yl)ethan-1-one dihydrochloride]: the Emax at 10 µM in assay [1] is 50 to 75%; in assay [2], under 25%.

Regarding `CC(C)(C[C@H]1CCCN(S(C)(=O)=O)C1)NC[C@H](O)c1cncc(F)c1` [Example 27, (R)-1-(5-Fluoropyridin-3-yl)-2-((2-methyl-1-((R)-1-(methylsulfonyl)-piperidin-3-yl)propan-2-yl)amino)ethan-1-ol dihydrochloride], the Emax at 10 µM is 50 to 75% in assay [1] and under 25% in assay [2].

Turning to `CC(C)(CC1CCNCC1)NC[C@H](O)c1cccc(F)c1` [Example 29, (R)-1-(3-Fluorophenyl)-2-((2-methyl-1-(piperidin-4-yl)propan-2-yl)-amino)ethan-1-ol], the values for the Emax at 10 µM in assay [1] and in assay [2] were over 75% and under 25%, respectively.

On to `CC(=O)N1CCC(CC(C)(C)NC[C@H](O)c2cccc(F)c2)CC1` [Example 30, (R)-1-(4-(2-((2-(3-Fluorophenyl)-2-hydroxyethyl)amino)-2-methyl-propyl)piperidin-1-yl)ethan-1-one hydrochloride], for which the figures for the Emax at 10 µM in assay [1] and in assay [2] were over 75% and under 25%, respectively.

With `CC(C)(CC1CCN(S(C)(=O)=O)CC1)NC[C@H](O)c1cccc(F)c1` [Example 31, (R)-1-(3-Fluorophenyl)-2-((2-methyl-1-(1-(methylsulfonyl)piperidin-4-yl)propan-2-yl)amino)ethan-1-ol hydrochloride], the figures for the Emax at 10 µM in assay [1] and in assay [2] were 50 to 75% and under 25%, respectively.

Consider `CN1CCC(CC(C)(C)NC[C@H](O)c2cccc(F)c2)CC1` [Example 32, (R)-1-(3-Fluorophenyl)-2-((2-methyl-1-(1-methylpiperidin-4-yl)-propan-2-yl)amino)ethan-1-ol dihydrochloride], for which the Emax at 10 µM in assay [1] is 50 to 75%; in assay [2], under 25%.

Regarding `CC(C)(CC1CCN(C(=O)OC(C)(C)C)CC1)NC[C@H](O)c1cncc(F)c1` [Example 33, tert-Butyl (R)-4-(2-((2-(5-fluoropyridin-3-yl)-2-hydroxyethyl)amino)-2-methylpropyl)piperidine-1-carboxylate], the Emax at 10 µM in assay [1] was over 75%; in assay [2], under 25%.

On to `CC(=O)N1CCC(CC(C)(C)NC[C@H](O)c2cncc(F)c2)CC1` [Example 34, (R)-1-(4-(2-((2-(5-fluoropyridin-3-yl)-2-hydroxyethyl)amino)-2-methylpropyl)piperidin-1-yl)ethan-1-one dihydrochloride], for which the Emax at 10 µM in assay [1] was 50 to 75%; in assay [2], under 25%.

For the compound `CC(C)(CC1CCN(S(C)(=O)=O)CC1)NC[C@H](O)c1cncc(F)c1` [Example 35, (R)-1-(5-Fluoropyridin-3-yl)-2-((2-methyl-1-(1-(methylsulfonyl)-piperidin-4-yl)propan-2-yl)amino)ethan-1-ol dihydrochloride], the Emax at 10 µM was 50 to 75% in assay [1] and under 25% in assay [2].

As for `CC(C)(C[C@@H]1CCC(=O)NC1)NC[C@H](O)c1cccc(F)c1` [Example 36, (S)-5-(2-(((R)-2-(3-Fluorophenyl)-2-hydroxyethyl)amino)-2-methyl-propyl)piperidin-2-one hydrochloride], the Emax at 10 µM in assay [1] is 50 to 75%; in assay [2], under 25%.

Regarding `CC(C)(C[C@@H]1CCC(=O)NC1)NC[C@H](O)c1cncc(F)c1` [Example 37, (S)-5-(2-(((R)-2-(5-Fluoropyridin-3-yl)-2-hydroxyethyl)amino)-2-methylpropyl)piperidin-2-one hydrochloride], the values for the Emax at 10 µM in assay [1] and in assay [2] were over 75% and under 25%, respectively.

As for `CC(C)(C[C@H]1CCC(=O)NC1)NC[C@H](O)c1cccc(F)c1` [Example 38, (R)-5-(2-(((R)-2-(3-Fluorophenyl)-2-hydroxyethyl)amino)-2-methyl-propyl)piperidin-2-one hydrochloride], the Emax at 10 µM is over 75% in assay [1] and under 25% in assay [2].

In the case of `CC(C)(C[C@H]1CCCN(C(=O)OC(C)(C)C)C1)NC[C@H](O)c1cccc(F)c1` [Example 39, tert-Butyl (R)-3-(2-(((R)-2-(3-fluorophenyl)-2-hydroxyethyl)amino)-2-methylpropyl)piperidine-1-carboxylate], the Emax at 10 µM lay in the range of 50 to 75% in assay [1] and 25 to 50% in assay [2].

In the case of `CC(C)(C[C@H]1CCCN(C(=O)OC(C)(C)C)C1)NC[C@H](O)c1cncc(F)c1` [Example 40, tert-Butyl (R)-3-(2-(((R)-2-(5-fluoropyridin-3-yl)-2-hydroxyethyl)-amino)-2-methylpropyl)piperidine-1-carboxylate], the Emax at 10 µM in assay [1] is over 75%; in assay [2], under 25%.

With `CC(C)(CC1CCN(C(=O)C(C)(C)C)CC1)NC[C@H](O)c1cccc(F)c1` [Example 41, (R)-1-(4-(2-((2-(3-Fluorophenyl)-2-hydroxyethyl)amino)-2-methyl-propyl)piperidin-1-yl)-2,2-dimethylpropan-1-one], the Emax at 10 µM in assay [1] was 25 to 50%; in assay [2], under 25%.

In the case of `CC(C)(CC1CCN(C(=O)C(F)(F)F)CC1)NC[C@H](O)c1cccc(F)c1` [Example 42, (R)-2,2,2-Trifluoro-1-(4-(2-((2-(3-fluorophenyl)-2-hydroxyethyl)-amino)-2-methylpropyl)piperidin-1-yl)ethan-1-one], the results for the Emax at 10 µM in assay [1] and in assay [2] were 25 to 50% and under 25%, respectively.

In the case of `COC(=O)N1CCC(CC(C)(C)NC[C@H](O)c2cccc(F)c2)CC1` [Example 43, Methyl (R)-4-(2-((2-(3-fluorophenyl)-2-hydroxyethyl)amino)-2-methyl-propyl)piperidine-1-carboxylate], the Emax at 10 µM is 50 to 75% in assay [1] and under 25% in assay [2].

Turning to `CN(C)C(=O)N1CCC(CC(C)(C)NC[C@H](O)c2cccc(F)c2)CC1` [Example 44, (R)-4-(2-((2-(3-Fluorophenyl)-2-hydroxyethyl)amino)-2-methyl-propyl)-N,N-dimethylpiperidine-1-carboxamide hydrochloride], the Emax at 10 µM in assay [1] was over 75%; in assay [2], 50 to 75%.

In the case of `CNC(=O)N1CCC(CC(C)(C)NC[C@H](O)c2cccc(F)c2)CC1` [Example 45, (R)-4-(2-((2-(3-Fluorophenyl)-2-hydroxyethyl)amino)-2-methyl-propyl)-N-methylpiperidine-1-carboxamide], the Emax at 10 µM in assay [1] is 50 to 75%; in assay [2] it was under 25%.

Consider `CC(C)(CC1CCNCC1)NC[C@H](O)c1cncc(F)c1` [Example 46, (R)-1-(5-Fluoropyridin-3-yl)-2-((2-methyl-1-(piperidin-4-yl)propan-2-yl)amino)ethan-1-ol], for which the Emax at 10 µM in assay [1] was 50 to 75%; in assay [2], under 25%.

For the compound `CC(C)(CC1CCN(C(=O)C(C)(C)C)CC1)NC[C@H](O)c1cncc(F)c1` [Example 47, (R)-1-(4-(2-((2-(5-Fluoropyridin-3-yl)-2-hydroxyethyl)amino)-2-methylpropyl)piperidin-1-yl)-2,2-dimethylpropan-1-one dihydrochloride], the values for the Emax at 10 µM in assay [1] and in assay [2] were 50 to 75% and under 25%, respectively.

The record behind these values is patent US20260242335A1, “HETEROCYCLOALKYL BETA-HYDROXY ALKYL AMINES FOR USE IN THE TREATMENT OF HYPERGLYCAEMIA AND DISORDERS CHARACTERISED BY HYPERGLYCAEMIA” (ATROGI AB, priority 2023, published 2026).
